Tests used:
[1] = molecular target: Cyclin-dependent kinase 5 (Homo sapiens, UniProt Q00535); assay: Selectivity interaction (KinomeScan (DiscoverX)) EUB0001049a CDK5; conditions: at 1 µM
[2] = molecular target: T1, cGMP-dependent protein kinase 2 (Homo sapiens) (UniProt Q13237); assay: Selectivity interaction (KinomeScan (DiscoverX)) EUB0000666a PRKG2; conditions: at 10 µM
T1 sequence (whole entry): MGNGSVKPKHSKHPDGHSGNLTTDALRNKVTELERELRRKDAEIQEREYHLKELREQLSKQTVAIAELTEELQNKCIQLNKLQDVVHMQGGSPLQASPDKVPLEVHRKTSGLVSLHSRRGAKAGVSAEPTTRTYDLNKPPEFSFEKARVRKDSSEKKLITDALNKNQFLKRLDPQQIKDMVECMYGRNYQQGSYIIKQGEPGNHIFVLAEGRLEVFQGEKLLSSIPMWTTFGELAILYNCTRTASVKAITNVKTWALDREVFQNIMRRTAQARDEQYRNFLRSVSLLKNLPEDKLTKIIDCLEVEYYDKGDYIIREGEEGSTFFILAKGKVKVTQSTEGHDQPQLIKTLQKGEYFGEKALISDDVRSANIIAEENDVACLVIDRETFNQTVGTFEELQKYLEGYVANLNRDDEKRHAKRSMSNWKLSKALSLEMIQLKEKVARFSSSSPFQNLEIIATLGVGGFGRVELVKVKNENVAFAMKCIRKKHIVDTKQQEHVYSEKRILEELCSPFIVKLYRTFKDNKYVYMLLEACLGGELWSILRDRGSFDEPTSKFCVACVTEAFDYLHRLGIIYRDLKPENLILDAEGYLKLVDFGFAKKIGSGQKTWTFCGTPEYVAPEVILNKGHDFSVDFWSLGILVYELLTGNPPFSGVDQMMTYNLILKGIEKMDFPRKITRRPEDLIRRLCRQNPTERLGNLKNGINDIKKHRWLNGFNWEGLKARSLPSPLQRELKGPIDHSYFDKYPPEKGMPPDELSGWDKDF

[3] = molecular target: Mitotic checkpoint serine/threonine-protein kinase BUB1 (Homo sapiens, UniProt O43683); assay: Selectivity interaction (KinomeScan (DiscoverX)) EUB0000666a BUB1; conditions: at 10 µM
Histamine H1 receptor = Histamine H1 receptor (Homo sapiens, UniProt P35367); assay: Selectivity interaction (GPCR panel (PDSP screen)) EUB0001079a HRH1; conditions: at 10 µM
[4] = molecular target: T2, Casein kinase I isoform alpha-like (Homo sapiens) (UniProt Q8N752); assay: Selectivity interaction (KinomeScan (DiscoverX)) EUB0001079a CSNK1A1L; conditions: at 1 µM
T2 sequence (whole entry): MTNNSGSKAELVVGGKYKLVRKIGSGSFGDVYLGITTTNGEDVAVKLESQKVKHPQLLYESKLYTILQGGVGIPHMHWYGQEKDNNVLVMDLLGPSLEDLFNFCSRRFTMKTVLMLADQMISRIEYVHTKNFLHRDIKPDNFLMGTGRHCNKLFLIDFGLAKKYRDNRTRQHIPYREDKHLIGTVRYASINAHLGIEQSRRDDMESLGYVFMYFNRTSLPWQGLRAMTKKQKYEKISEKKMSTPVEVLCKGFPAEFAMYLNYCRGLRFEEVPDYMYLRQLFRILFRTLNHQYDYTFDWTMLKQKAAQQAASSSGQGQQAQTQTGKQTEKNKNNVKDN

[5] = molecular target: Ribosomal protein S6 kinase alpha-1 (Homo sapiens, UniProt Q15418); assay: Selectivity interaction (Kinase panel (Invitrogen)) EUB0000639a RPS6KA1; conditions: at 200 nM
[6] = molecular target: Serine/threonine-protein kinase VRK2 (Homo sapiens) (UniProt Q86Y07); assay: Selectivity interaction (KinomeScan (DiscoverX)) EUB0000092b VRK2; conditions: at 10 µM
Sequence of Serine/threonine-protein kinase VRK2 (Homo sapiens) (Q86Y07 whole entry): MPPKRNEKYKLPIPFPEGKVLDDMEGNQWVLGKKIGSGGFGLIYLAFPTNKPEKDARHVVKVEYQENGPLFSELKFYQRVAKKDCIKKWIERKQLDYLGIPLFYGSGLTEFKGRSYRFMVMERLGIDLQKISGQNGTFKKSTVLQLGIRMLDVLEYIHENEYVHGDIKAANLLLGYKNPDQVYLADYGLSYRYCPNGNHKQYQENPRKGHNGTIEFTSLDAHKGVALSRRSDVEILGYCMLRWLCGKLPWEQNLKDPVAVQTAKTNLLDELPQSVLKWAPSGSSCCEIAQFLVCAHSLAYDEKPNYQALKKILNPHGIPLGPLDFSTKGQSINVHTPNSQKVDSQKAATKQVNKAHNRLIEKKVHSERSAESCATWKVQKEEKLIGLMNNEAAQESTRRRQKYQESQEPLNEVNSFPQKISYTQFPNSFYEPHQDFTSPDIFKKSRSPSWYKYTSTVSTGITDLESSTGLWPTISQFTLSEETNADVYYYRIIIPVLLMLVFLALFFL

[7] = molecular target: T3, Mitogen-activated protein kinase 15 (Homo sapiens) (UniProt Q8TD08); assay: Selectivity interaction (KinomeScan (DiscoverX)) EUB0000618a MAPK15; conditions: at 10 µM
T3 sequence (whole entry): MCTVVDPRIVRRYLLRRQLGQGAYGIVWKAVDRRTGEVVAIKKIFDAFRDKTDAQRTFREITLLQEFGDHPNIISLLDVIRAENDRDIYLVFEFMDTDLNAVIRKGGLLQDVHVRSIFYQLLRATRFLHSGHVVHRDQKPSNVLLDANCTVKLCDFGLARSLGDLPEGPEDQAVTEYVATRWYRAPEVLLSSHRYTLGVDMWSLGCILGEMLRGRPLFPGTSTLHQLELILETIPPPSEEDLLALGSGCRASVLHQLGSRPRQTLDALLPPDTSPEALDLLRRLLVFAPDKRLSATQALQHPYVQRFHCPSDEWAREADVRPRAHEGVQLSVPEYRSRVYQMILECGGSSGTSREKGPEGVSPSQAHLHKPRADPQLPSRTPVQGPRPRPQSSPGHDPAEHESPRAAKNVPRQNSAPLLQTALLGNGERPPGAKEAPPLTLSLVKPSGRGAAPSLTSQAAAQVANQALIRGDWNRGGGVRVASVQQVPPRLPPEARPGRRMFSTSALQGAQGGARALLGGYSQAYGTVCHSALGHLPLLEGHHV

[8] = molecular target: Hepatocyte growth factor receptor (Homo sapiens, UniProt P08581); assay: (§1) Selectivity interaction (KinomeScan (DiscoverX)) EUB0001619a MET; conditions: at 1 µM
[9] = system: Hepatocyte growth factor receptor (Homo sapiens), P08581 [M1250T]; assay: as §1; conditions: at 1 µM
Sequence of Hepatocyte growth factor receptor (Homo sapiens), P08581 [M1250T] (P08581 whole entry M1250T): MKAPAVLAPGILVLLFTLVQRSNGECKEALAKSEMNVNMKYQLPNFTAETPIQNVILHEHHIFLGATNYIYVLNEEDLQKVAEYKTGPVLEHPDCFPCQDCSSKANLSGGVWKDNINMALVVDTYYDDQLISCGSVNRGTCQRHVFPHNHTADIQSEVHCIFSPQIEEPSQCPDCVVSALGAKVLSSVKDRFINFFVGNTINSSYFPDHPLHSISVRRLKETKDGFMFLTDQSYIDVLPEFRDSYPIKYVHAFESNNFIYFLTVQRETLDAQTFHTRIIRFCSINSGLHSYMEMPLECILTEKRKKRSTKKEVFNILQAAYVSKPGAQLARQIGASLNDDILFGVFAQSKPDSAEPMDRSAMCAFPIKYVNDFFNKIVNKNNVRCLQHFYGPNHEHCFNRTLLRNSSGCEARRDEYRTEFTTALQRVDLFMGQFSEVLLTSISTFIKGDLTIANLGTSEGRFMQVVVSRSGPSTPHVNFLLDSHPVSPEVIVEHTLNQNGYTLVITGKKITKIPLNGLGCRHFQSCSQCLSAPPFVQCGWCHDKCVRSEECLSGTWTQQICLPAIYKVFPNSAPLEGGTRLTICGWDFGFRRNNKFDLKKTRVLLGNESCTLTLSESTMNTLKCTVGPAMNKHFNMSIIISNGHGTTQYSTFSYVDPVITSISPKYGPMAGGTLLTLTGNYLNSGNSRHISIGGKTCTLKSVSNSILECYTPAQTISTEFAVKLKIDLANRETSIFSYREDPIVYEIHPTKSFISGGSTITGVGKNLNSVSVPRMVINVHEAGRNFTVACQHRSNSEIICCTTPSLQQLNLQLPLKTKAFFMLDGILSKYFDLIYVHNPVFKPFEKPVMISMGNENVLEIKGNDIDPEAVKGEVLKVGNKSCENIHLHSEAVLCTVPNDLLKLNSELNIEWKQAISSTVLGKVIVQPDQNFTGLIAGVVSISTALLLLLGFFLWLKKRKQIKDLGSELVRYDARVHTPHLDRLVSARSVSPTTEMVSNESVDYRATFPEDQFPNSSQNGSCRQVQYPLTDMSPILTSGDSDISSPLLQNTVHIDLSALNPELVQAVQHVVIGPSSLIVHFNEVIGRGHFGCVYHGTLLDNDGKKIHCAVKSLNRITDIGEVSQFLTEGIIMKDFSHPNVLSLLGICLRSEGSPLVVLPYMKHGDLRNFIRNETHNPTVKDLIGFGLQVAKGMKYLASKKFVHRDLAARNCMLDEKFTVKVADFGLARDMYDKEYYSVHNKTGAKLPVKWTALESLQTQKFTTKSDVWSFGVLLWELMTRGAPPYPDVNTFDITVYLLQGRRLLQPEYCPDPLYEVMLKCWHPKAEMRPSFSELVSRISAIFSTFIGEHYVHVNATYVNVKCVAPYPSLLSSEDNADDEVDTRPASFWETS

[10] = system: Hepatocyte growth factor receptor (Homo sapiens), P08581 [Y1235D]; assay: as §1; conditions: at 1 µM
Sequence of Hepatocyte growth factor receptor (Homo sapiens), P08581 [Y1235D] (P08581 whole entry Y1235D): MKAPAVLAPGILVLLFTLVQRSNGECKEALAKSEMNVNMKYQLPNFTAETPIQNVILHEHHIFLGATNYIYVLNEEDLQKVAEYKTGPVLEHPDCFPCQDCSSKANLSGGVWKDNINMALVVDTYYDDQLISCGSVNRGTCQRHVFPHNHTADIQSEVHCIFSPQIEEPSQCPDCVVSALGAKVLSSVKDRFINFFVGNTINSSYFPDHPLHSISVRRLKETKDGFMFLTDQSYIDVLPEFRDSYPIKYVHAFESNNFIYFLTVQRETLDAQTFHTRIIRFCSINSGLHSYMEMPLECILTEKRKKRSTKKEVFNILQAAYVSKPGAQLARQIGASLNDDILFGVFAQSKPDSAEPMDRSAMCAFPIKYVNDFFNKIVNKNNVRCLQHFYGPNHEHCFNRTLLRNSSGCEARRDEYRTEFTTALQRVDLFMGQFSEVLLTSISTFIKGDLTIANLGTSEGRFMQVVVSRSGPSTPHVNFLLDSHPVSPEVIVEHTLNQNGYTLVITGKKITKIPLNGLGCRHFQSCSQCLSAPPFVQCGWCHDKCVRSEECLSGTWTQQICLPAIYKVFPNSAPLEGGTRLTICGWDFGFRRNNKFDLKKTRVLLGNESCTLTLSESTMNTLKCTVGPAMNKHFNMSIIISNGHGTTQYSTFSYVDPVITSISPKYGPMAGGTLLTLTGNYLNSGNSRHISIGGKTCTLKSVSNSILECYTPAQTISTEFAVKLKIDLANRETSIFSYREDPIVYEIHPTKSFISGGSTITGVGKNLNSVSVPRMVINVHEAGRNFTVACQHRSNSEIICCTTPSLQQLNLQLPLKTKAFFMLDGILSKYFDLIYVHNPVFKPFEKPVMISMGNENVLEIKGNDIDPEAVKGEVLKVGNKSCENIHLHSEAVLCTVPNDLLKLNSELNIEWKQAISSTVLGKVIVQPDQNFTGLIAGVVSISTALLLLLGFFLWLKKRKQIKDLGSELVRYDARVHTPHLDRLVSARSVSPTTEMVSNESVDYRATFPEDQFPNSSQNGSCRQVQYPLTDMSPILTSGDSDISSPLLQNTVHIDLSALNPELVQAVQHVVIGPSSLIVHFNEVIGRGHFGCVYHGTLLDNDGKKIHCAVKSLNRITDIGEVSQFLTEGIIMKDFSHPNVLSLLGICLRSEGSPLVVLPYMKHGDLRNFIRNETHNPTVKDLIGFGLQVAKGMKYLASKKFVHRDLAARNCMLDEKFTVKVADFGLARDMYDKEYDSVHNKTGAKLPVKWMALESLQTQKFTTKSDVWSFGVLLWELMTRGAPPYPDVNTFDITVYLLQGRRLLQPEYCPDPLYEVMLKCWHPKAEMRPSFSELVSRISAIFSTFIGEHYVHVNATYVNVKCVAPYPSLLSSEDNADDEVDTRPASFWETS

[11] = molecular target: MAP kinase-interacting serine/threonine-protein kinase 2 (Homo sapiens, UniProt Q9HBH9); assay: Selectivity interaction (KinomeScan (DiscoverX)) EUB0001619a MKNK2; conditions: at 1 µM
[12] = molecular target: Calcium/calmodulin-dependent protein kinase type II subunit gamma (Homo sapiens) (UniProt Q13555); assay: Selectivity interaction (KinomeScan (DiscoverX)) EUB0000655a CAMK2G; conditions: at 10 µM
Sequence of Calcium/calmodulin-dependent protein kinase type II subunit gamma (Homo sapiens) (Q13555 whole entry): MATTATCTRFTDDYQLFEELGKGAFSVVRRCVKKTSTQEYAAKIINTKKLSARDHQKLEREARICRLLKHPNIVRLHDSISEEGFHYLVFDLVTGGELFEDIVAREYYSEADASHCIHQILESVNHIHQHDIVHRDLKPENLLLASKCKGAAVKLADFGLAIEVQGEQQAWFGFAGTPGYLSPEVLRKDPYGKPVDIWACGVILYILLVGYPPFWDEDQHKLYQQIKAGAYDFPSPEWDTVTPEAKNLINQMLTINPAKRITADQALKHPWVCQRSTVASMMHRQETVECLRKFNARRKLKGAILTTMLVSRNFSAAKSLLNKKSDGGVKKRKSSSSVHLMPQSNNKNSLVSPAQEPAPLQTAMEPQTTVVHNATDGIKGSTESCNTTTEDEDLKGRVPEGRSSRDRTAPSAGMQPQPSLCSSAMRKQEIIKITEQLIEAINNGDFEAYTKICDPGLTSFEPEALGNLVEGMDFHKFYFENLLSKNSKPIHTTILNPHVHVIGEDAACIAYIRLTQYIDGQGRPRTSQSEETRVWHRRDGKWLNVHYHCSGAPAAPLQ

[13] = molecular target: Cyclin-dependent kinase 15 (Homo sapiens) (UniProt Q96Q40); assay: Selectivity interaction (KinomeScan (DiscoverX)) EUB0000607a CDK15; conditions: at 10 µM
Sequence of Cyclin-dependent kinase 15 (Homo sapiens) (Q96Q40 whole entry): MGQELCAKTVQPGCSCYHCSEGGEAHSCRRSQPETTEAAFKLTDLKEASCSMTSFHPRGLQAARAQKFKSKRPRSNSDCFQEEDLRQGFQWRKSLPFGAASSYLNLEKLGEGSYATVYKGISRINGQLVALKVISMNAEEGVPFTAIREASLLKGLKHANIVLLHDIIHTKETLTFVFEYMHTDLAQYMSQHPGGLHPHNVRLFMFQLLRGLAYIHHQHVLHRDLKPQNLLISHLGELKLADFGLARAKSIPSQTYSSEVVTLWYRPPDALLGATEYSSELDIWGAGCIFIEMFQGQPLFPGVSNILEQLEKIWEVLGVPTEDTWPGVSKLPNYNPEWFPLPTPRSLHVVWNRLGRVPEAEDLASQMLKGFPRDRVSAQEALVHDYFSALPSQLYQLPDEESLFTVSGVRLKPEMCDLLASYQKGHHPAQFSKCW

[14] = molecular target: Dual specificity testis-specific protein kinase 2 (Homo sapiens) (UniProt Q96S53); assay: Selectivity interaction (LanthaScreen Eu Kinase Binding Assay) EUB0001632a TESK2; conditions: at 10 µM
[15] = molecular target: Mitogen-activated protein kinase 10 (Homo sapiens, UniProt P53779); assay: Selectivity interaction (Kinase panel (Z-LYTE Assay)) EUB0001632a MAPK10; conditions: at 10 µM
[16] = molecular target: Kappa-type opioid receptor (Homo sapiens, UniProt P41145); assay: Selectivity interaction (Panel of non-epigenetic targets (kinases, GPCRs, ion channels, and transporters, Eurofins) ) EUB0000271b OPRK1; conditions: at 1 µM
[17] = molecular target: Mitogen-activated protein kinase 11 (Homo sapiens) (UniProt Q15759); assay: Selectivity interaction (ProQinase) EUB0000171b MAPK11
Sequence of Mitogen-activated protein kinase 11 (Homo sapiens) (Q15759 whole entry): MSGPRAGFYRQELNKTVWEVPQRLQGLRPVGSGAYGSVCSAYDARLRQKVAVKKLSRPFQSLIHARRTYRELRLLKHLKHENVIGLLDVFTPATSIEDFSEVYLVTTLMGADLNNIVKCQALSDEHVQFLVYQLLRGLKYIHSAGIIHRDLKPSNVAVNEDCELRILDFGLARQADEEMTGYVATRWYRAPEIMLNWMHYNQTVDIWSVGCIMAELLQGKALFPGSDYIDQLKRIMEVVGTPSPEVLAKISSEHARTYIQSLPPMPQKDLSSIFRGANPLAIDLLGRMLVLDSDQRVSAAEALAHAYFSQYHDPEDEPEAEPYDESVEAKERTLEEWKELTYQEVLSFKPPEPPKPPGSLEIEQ

Sequence of Cyclin-dependent kinase 5 (Q00535 whole entry, looked up): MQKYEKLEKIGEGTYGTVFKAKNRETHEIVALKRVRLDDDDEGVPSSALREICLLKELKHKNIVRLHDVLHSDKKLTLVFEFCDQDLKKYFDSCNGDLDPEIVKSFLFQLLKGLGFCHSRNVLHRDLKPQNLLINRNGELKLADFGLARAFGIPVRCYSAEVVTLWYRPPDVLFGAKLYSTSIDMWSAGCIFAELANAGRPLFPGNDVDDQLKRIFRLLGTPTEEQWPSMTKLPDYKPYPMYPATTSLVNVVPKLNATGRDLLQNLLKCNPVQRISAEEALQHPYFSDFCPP

`COc1cc(Nc2nc(C)cc(-c3cnn4nc(OC)ccc34)n2)cc(C(F)(F)F)c1` showed a % of control [1] of 89%.
Compound `O=C(NOC[C@H](O)CO)c1ccc(F)c(F)c1Nc1ccc(I)cc1F` has a % of control [2] of 86% and a % of control [3] of 100%.
`Nc1cnc(N2CCc3cc(S(=O)(=O)Nc4c(F)cc(Cl)cc4F)cc(N4CCCC4=O)c32)nc1` [TP-020n] showed a % of inhibition (Histamine H1 receptor) of 8.19% and a % of control [4] of 100%.
In the case of `CC[C@@H]1[C@H](F)C(=O)N[C@@H]1COc1nccc2cc(C(N)=O)c(OC)cc12` [ZIMLOVISERTIB], the % of inhibition [5] is reported as 2.83%.
`CCC(=O)N1CCN(c2ccc(-n3c(=O)ccc4cnc5ccc(-c6cnc7ccccc7c6)cc5c43)cc2C(F)(F)F)CC1` gave a % of control [6] of 100%.
`O[C@H]1CC[C@H](Nc2ncc3nc(Nc4c(F)cc(F)cc4F)n([C@H]4CCOC4)c3n2)CC1` was tested, and the % of control [7] was 100%.
For `N#Cc1cccc(-c2c[nH]c3ncnc(N4CCOCC4)c23)c1`, the % of control [8] was 93%, the % of control [9] was 96% and the % of control [10] was 93%. The % of control [11] was 90%.
With `CN(C)CCOc1ccc(-c2nc(-c3ccncc3)c(-c3ccc4c(c3)CC/C4=N\O)[nH]2)cc1` the % of control [12] was 94%.
`CNC(=O)Nc1ccc(-c2nc(N3CC4CCC(C3)O4)c3cnn(C4CCC5(CC4)OCCO5)c3n2)cc1` gave a % of control [13] of 100%.
Work on `Cn1cc(-n2cnc3c(NCc4nc5cc(Cl)c(Cl)cc5[nH]4)nc(N4CCOCC4)nc32)cn1` yielded a % of inhibition [14] of 0.732% and a % of control [15] of 3.04%.
`Cc1cc(C)cc([C@@H]2c3cc(C)ccc3NC(=O)CN2C(=O)c2ccc(Br)s2)c1` was tested, and the % of inhibition [16] was 20%.
`C=CC(=O)Nc1cccc(C(=O)Nc2ccc(Nc3cc(-c4[nH]c(SC)nc4C)ccn3)cc2)c1` gave a % of control ([17]; at 1 µM) of 93% and a % of control ([17]; at 5 µM) of 75%.

Reference: ChEMBL document CHEMBL5465560, “Selectivity Literature for EUbOPEN Chemogenomic Library” (2024)
